Data from US6831190B1, “Guanidinomethyl cyclohexane carboxylic acid ester derivatives” (Teikoku Chemical Industries Co., Ltd., priority 1994, dated 2004).

Experiments:
Format in all cases: cell-based
[1] = system: Bacillus subtilis ATCC 6633; experiment: MIC, standard method of Japanese Chemotherapy Academy; settings: standard method of Japanese Chemotherapy Academy
Protocol: (§1) 1. Minimum Inhibitory Concentration (MIC) was measured in accordance with the standard method of Japanese Chemotherapy Academy (Chemotherapy, 29: 76-79, 1981).
And MIC of the compounds of Example 3, 36, 8, 14, 17, 21, 41 and 45 were measured.

[2] = system: Escherichia coli NIH JC-2; experiment: as above; settings: for MIC: Objected Strain 3: Escherichia coli NIH JC-2
Protocol: as §1

[3] = system: Helicobacter pylori ATCC 43504; experiment: MIC, agar plating dilution (standard method of Japanese Chemotherapy Academy); settings: Objected Strain 1: Helicobacter pylori ATCC 43504
Protocol: (§2) 1. Minimum Inhibitory Concentration (MIC) was measured in accordance with the standard method of Japanese Chemotherapy Academy (Chemotherapy, 29: 76-79, 1981). Sensitivity was measured with an agar plating dilution using Brain-Heart Infusion agar (Difco Co.) which was added 0.1% of cyclodextrin. […] of the solutions of the compounds which were obtained in examples of the present invention was prepared by dissolving in dimethylsulfoxide. […] Each of 1 ml of those prepared solutions was dispensed in share, after sterilization, 9 ml of sensitivity measuring medium which is kept at 50° C. was added to each, and they were sufficiently mixed. The mixture was used as a plate for measuring sensitivity. Brain Heart Infusion agar medium (Difco Co.), which was added 0.1% of cyclodextrin, was used as bacteria growing medium, and was cultured under microair at 37° C. for three days, and the number of bacteria thereof was adjusted to about 106/ml. This was used as a bacterial solution for inoculation. The medium was painted in each square about 2 cm with nichromic line loop. The medium was cultured under microair for three days at 37° C.

[4] = system: Helicobacter pylori ATCC 43629; experiment: as above; settings: Objected Strain 2: Helicobacter pylori ATCC 43629
Protocol: as §2

[5] = system: Helicobacter pylori No. 3; experiment: MIC, agar plating dilution, clinical segregation strain; settings: Strain 6: Helicobacter pylori No. 3
Protocol: (§3) Minimum Inhibitory Concentration (MIC) was measured in accordance with the standard method of Japanese Chemotherapy Academy (Chemotherapy, 29: 76-79, 1981). Sensitivity was measured with an agar plating dilution using Brain-Heart Infusion agar (Difco Co.) which was added 0.1% of cyclodextrin. […] of the solutions of the compounds which were obtained in examples of the present invention was prepared by dissolving in dimethylsulfoxide. […] Each of 1 ml of those prepared solutions was dispensed in share, after sterilization, 9 ml of sensitivity measuring medium which is kept at 50° C. was added to each, and they were sufficiently mixed. The mixture was used as a plate for measuring sensitivity. Brain Heart Infusion agar medium (Difco Co.), which was added 0.1% of cyclodextrin, was used as bacteria growing medium, and was cultured under microair at 37° C. for three days, and the number of bacteria thereof was adjusted to about 106/ml. This was used as a bacterial solution for inoculation. The medium was painted in each square about 2 cm with nichromic line loop. The medium was cultured under microair for three days at 37° C. […] The each result is shown at Table 4.

[6] = system: Helicobacter pylori No. 2; experiment: as above; settings: Strain 5: Helicobacter pylori No. 2
Protocol: as §3

[7] = system: Helicobacter pylori No. 1; experiment: as above; settings: Strain 4: Helicobacter pylori No. 1
Protocol: as §3

[8] = system: Helicobacter pylori No. 4; experiment: as above; settings: Strain 7: Helicobacter pylori No. 4
Protocol: as §3

Compound	MIC against bacillus subcillus ATCC 6633 [1] [µg/mL]	MIC against Escherichia coli. NHJC-2 ([2]; standard method of Japanese Chemotherapy Academy) [µg/mL]	MIC [3] [µg/mL]	MIC [4] [µg/mL]	MIC [5] [µg/mL]	MIC [6] [µg/mL]	MIC [7] [µg/mL]	MIC [8] [µg/mL]	MIC [2] [µg/mL]
4-[4-(trans-4-guanidinomethyl cyclohexylcarbonyloxy)phenyl]benzoate.methansulfonate [Example 28]	> 25	> 25							
Cl.N=C(N)NC[C@H]1CC[C@H](C(=O)Oc2ccc(-c3ccccc3)cc2)CC1 [Compound 1, trans-4-guanidinomethyl cyclohexane carboxylic acid (4-phenylphenylester)hydrochloride, reference compound]			3.13	0.78	0.39	1.56	0.39	0.78	>25
CCOC(=O)c1ccc(-c2ccc(OC(=O)[C@H]3CC[C@H](CNC(=N)N)CC3)cc2)cc1.Cl [Example 2, trans-4-guanidinomethyl cyclohexane carboxylic acid [4-(4-ethoxycarbonylphenyl)phenylester].hydrochloride]			1.56	0.78	0.39	1.56	0.39	0.78	>25
COc1ccc(COC(=O)c2ccc(-c3ccc(OC(=O)[C@H]4CC[C@H](CNC(=N)N)CC4)cc3)cc2)cc1.Cl [Example 18, trans-4-guanidinomethyl cyclohexane carboxylic acid [4-[4-(4-methoxybenzyloxy carbonyl)phenyl]phenylester].hydrochloride]	25		0.78	0.78	0.20	0.78	0.20	0.39	>25
Cl.N=C(N)NC[C@H]1CC[C@H](C(=O)Oc2ccc(-c3ccc(C(=O)OCc4ccccc4F)cc3)cc2)CC1 [Example 19, trans-4-guanidinomethyl cyclohexane carboxylic acid [4-[4-(2-fluorobenzyloxycarbonyl)phenyl]phenylester].hydrochloride]	> 25		0.39	0.39	0.20	0.78	0.20	0.39	>25
CC(C)OC(=O)c1ccc(-c2ccc(OC(=O)[C@H]3CC[C@H](CNC(=N)N)CC3)cc2)cc1.Cl [Example 20, trans-4-guanidinomethyl cyclohexane carboxylic acid [4-(4-isopropyloxycarbonyl)phenylphenylester].hydrochloride]			0.78	0.78	0.39	1.56	0.39	0.78	>25
Cl.N=C(N)NC[C@H]1CC[C@H](C(=O)Oc2ccc(-c3ccc(C(=O)OCC4CCCCC4)cc3)cc2)CC1 [Example 23, trans-4-guanidinomethyl cyclohexane carboxylic acid [4-(4-cyclohexylmethyloxy carbonylphenyl)phenylester].hydrochloride]	25		0.20	0.39	0.20	0.39	0.20	0.39	>25
Cc1ccc(COC(=O)c2ccc(-c3ccc(OC(=O)[C@H]4CC[C@H](CNC(=N)N)CC4)c(Br)c3)cc2)cc1.Cl [Example 24, trans-4-guanidinomethyl cyclohexane carboxylic acid[2-bromo-4-[4-(4-methylbenzyloxycarbonyl)phenyl]phenylester].hydrochloride]	> 25		0.39	0.78	0.20	0.39		0.39	>25
Cc1ccc(COC(=O)c2ccc(-c3ccc(OC(=O)[C@H]4CC[C@H](CNC(=N)N)CC4)cc3)cc2)c(C)c1.Cl [Example 25, trans-4-guanidinomethyl cyclohexane carboxylic acid[4-[4-(2,4-dimethylbenzyloxycarbonyl)phenyl]phenylester].hydrochloride]	> 25		0.39	0.78	0.20	0.39	0.39	0.39	>25
Cl.N=C(N)NC[C@H]1CC[C@H](C(=O)Oc2ccc(Cc3ccccc3)cc2)CC1 [Example 33, trans-4-guanidinomethyl cyclohexane carboxylic acid (4-benzylphenylester).hydrochloride]			12.5	12.5					>25
CC(C)(c1ccccc1)c1ccc(OC(=O)[C@H]2CC[C@H](CNC(=N)N)CC2)cc1.Cl [Example 34, trans-4-guanidinomethyl cyclohexane carboxylic acid[4-(1-methyl-1-phenylethyl)phenylester].hydrochloride]			25	25					>25
Cl.N=C(N)NC[C@H]1CC[C@H](C(=O)Oc2ccc(Oc3ccccc3)cc2)CC1 [Example 35, trans-4-guanidinomethyl cyclohexane carboxylic acid (4-phenoxyphenylester).hydrochloride]			12.5	25					>25
Cl.N=C(N)NC[C@H]1CC[C@H](C(=O)Oc2ccc(OCc3ccccc3)cc2)CC1 [Example 37, trans-4-guanidinomethyl cyclohexane carboxylic acid (4-benzyloxyphenylester).hydrochloride]			12.5	3.13					>25
Cl.N=C(N)NC[C@H]1CC[C@H](C(=O)Oc2ccc(C=Cc3ccccc3)cc2)CC1 [Example 38, trans-4-guanidinomethyl cyclohexane carboxylic acid (4-styrylphenylester).hydrochloride]			0.78	0.39					>25
Cl.N=C(N)NC[C@H]1CC[C@H](C(=O)Oc2ccc(-c3ccc(C(=O)OCCCc4ccccc4)cc3)cc2)CC1 [Example 39, trans-4-guanidinomethyl cyclohexane carboxylic acid[4-[4-(3-phenylpropyloxycarbonyl)phenyl]phenylester].hydrochloride]			0.39	0.78	0.20	0.78	0.39	0.39	>25
Cl.N=C(N)NC[C@H]1CC[C@H](C(=O)Oc2ccc(-c3ccc(C(=O)OCCCOc4ccc(F)cc4)cc3)cc2)CC1 [Example 40, trans-4-guanidinomethyl cyclohexane carboxylic acid[4-[4-[3-(4-fluorophenyloxy)propyloxycarbonyl]phenyl]phenylester].hydrochloride]			0.20	0.39	0.10	0.78	0.20	0.39	>25
CCCC[C@H]1CC[C@H](COC(=O)c2ccc(-c3ccc(OC(=O)[C@H]4CC[C@H](CNC(=N)N)CC4)cc3)cc2)CC1.Cl [Example 42, trans-4-guanidinomethyl cyclohexane carboxylic acid[4-[4-(trans-4-n-butylcyclohexylmethloxycarbonyl)phenyl]phenylester].hydrochloride]			0.39	1.56	0.20	1.56	0.39	0.39	>25
